According to ChEMBL document CHEMBL4665636, “Spirooxindole-pyrrolidine heterocyclic hybrids promotes apoptosis through activation of caspase-3” (Bioorg Med Chem, 2019):
pIC50: −log10 of the molar value. Calls of active or inactive are those of the source. The calls are words filed in the database; no cut-off is given here.

Legend:
[1] = Cytotoxicity against human PCS-130-010 cells assessed as reduction in cell viability up to 200 uM measured up to 48 hrs by MTT assay; assay type: cell-based; details: pcs-130-010, 48 h
[2] = Cytotoxicity against human MCF10 cells assessed as reduction in cell viability up to 200 uM measured up to 48 hrs by MTT assay; assay type: cell-based; details: mcf10, 48 h
[3] = tested on: Jurkat; test: Antiproliferative activity against human Jurkat cells assessed as reduction in cell proliferation measured after 24 hrs by MTT assay; assay type: functional, cell-based
[4] = tested on: A549; test: Antiproliferative activity against human A549 cells assessed as reduction in cell proliferation measured after 24 hrs by MTT assay; assay type: functional, cell-based; details: A549, 24 h
[5] = tested on: A549; test: Antiproliferative activity against human A549 cells assessed as reduction in cell proliferation measured after 48 hrs by MTT assay; assay type: functional, cell-based; details: A549, 48 h
[6] = tested on: Jurkat; test: Antiproliferative activity against human Jurkat cells assessed as reduction in cell proliferation measured after 48 hrs by MTT assay; assay type: functional, cell-based
[7] = tested on: A549; test: Induction of apoptosis in human A549 cells assessed as early apoptotic cells at IC50 measured after 48 hrs by annexicV-FITC/propidium iodide staining based flow cytometry analysis (reference value: 0.33 %); assay type: functional
[8] = tested on: A549; test: Induction of apoptosis in human A549 cells assessed as viable cells by measuring fluorescence intensity at IC50 measured after 48 hrs by annexicV-FITC/propidium iodide staining based flow cytometry analysis (reference value: 96.89 %); assay type: functional
[9] = tested on: A549; test: Induction of apoptosis in human A549 cells assessed as necrotic cells at IC50 measured after 24 hrs by annexicV-FITC/propidium iodide staining based flow cytometry analysis (reference value: 0.23 %); assay type: functional
[10] = tested on: A549; test: Induction of apoptosis in human A549 cells assessed as necrotic cells at IC50 measured after 48 hrs by annexicV-FITC/propidium iodide staining based flow cytometry analysis (reference value: 0 %); assay type: functional
[11] = tested on: A549; test: Induction of apoptosis in human A549 cells assessed as distribution of cleaved caspase 3 in nuclei at IC50 after 24 to 48 hrs by FITC staining based microscopy analysis; assay type: functional, cell-based; details: time hrs 24-48
[12] = tested on: A549; test: Induction of apoptosis in human A549 cells assessed as early apoptotic cells at IC50 measured after 48 hrs by annexicV-FITC/propidium iodide staining based flow cytometry analysis (reference value: 3.02 %); assay type: functional
[13] = tested on: A549; test: Induction of apoptosis in human A549 cells assessed as late apoptotic cells at IC50 measured after 48 hrs by annexicV-FITC/propidium iodide staining based flow cytometry analysis (reference value: 0 %); assay type: functional
[14] = tested on: A549; test: Induction of apoptosis in human A549 cells assessed as viable cells at IC50 measured after 48 hrs by annexicV-FITC/propidium iodide staining based flow cytometry analysis (reference value: 99.67 %); assay type: functional
[15] = tested on: A549; test: Induction of apoptosis in human A549 cells assessed as early apoptotic cells at IC50 measured after 24 hrs by annexicV-FITC/propidium iodide staining based flow cytometry analysis (reference value: 0.16 %); assay type: functional
[16] = tested on: A549; test: Induction of apoptosis in human A549 cells assessed as viable cells at IC50 measured after 24 hrs by annexicV-FITC/propidium iodide staining based flow cytometry analysis (reference value: 99.11 %); assay type: functional
[17] = tested on: A549; test: Induction of apoptosis in human A549 cells assessed as late apoptotic cells at IC50 measured after 24 hrs by annexicV-FITC/propidium iodide staining based flow cytometry analysis (reference value: 0.5 %); assay type: functional
[18] = tested on: A549; test: Induction of apoptosis in human A549 cells assessed as effect on viable cells by measuring fluorescence intensity IC50 measured after 24 hrs by annexicV-FITC/propidium iodide staining based flow cytometry analysis (reference value: 96.25 %); assay type: functional
[19] = tested on: A549; test: Induction of apoptosis in human A549 cells at IC50 measured after 24 hrs by annexicV-FITC/propidium iodide staining based flow cytometry analysis (reference value: 3.63 %); assay type: functional
[20] = tested on: A549; test: Induction of apoptosis in human A549 cells assessed as distribution of cleaved caspase 3 in cytoplasm at IC50 after 24 to 48 hrs by FITC staining based microscopy analysis; assay type: functional, cell-based; details: time hrs 24-48

SMILES	Activity [1]	Activity [2]	pIC50 [3]	pIC50 [4]	pIC50 [5]	pIC50 [6]	Activity [7]	Activity [8]	Activity [9]	Activity [10]	Activity [11]	Activity [12]	Activity [13]	Activity [14]	Activity [15]	Activity [16]	Activity [17]	Activity [18]	Activity [19]	Activity [20]
O=C1Nc2ccccc2C12NC(Cc1ccc(O)cc1)C([N+](=O)[O-])C2c1ccc(Cl)cc1 (centres undefined)	Non-Toxic	Non-Toxic	4.11	4.13	4.23	4.29	–	–	–	–	–	–	–	–	–	–	–	–	–	–
O=C1Nc2ccccc2C12NC(Cc1ccc(O)cc1)C([N+](=O)[O-])C2c1ccc(Br)cc1 (centres undefined)	Non-Toxic	Non-Toxic	4.13	4.23	4.40	4.36	–	–	–	–	–	–	–	–	–	–	–	–	–	–
O=C1Nc2ccc(OC(F)(F)F)cc2C12NC(Cc1ccc(O)cc1)C([N+](=O)[O-])C2c1cccc([N+](=O)[O-])c1 (centres undefined)	Non-Toxic	Non-Toxic	4.08	4.19	4.21	4.30	–	–	–	–	–	–	–	–	–	–	–	–	–	–
O=C1Nc2ccccc2C12NC(Cc1ccc(O)cc1)C([N+](=O)[O-])C2c1ccccc1 (centres undefined)	Non-Toxic	Non-Toxic	4.01	4.10	4.18	4.21	–	–	–	–	–	–	–	–	–	–	–	–	–	–
Cc1ccc(C2C([N+](=O)[O-])C(Cc3ccc(O)cc3)NC23C(=O)Nc2ccc(OC(F)(F)F)cc23)cc1 (centres undefined)	Non-Toxic	Non-Toxic	4.28	4.41	4.53	4.37	24.18%	29.53%	0%	23.2%	Active	70.35%	17.79%	34.83%	31.45%	58.92%	9.63%	38.62%	63.87%	Active
Cc1ccc(C2C([N+](=O)[O-])C(Cc3ccc(O)cc3)NC23C(=O)Nc2ccccc23)cc1 (centres undefined)	Non-Toxic	Non-Toxic	3.94	3.98	4.25	4.32	–	–	–	–	–	–	–	–	–	–	–	–	–	–
COc1ccc(C2C([N+](=O)[O-])C(Cc3ccc(O)cc3)NC23C(=O)Nc2ccccc23)cc1 (centres undefined)	Non-Toxic	Non-Toxic	4.12	4.23	4.32	4.32	–	–	–	–	–	–	–	–	–	–	–	–	–	–
O=C1Nc2ccc(OC(F)(F)F)cc2C12NC(Cc1ccc(O)cc1)C([N+](=O)[O-])C2c1ccccc1 (centres undefined)	Non-Toxic	Non-Toxic	4.18	4.34	4.35	4.35	–	–	–	–	–	–	–	–	–	–	–	–	–	–
O=C1Nc2ccc(OC(F)(F)F)cc2C12NC(Cc1ccc(O)cc1)C([N+](=O)[O-])C2c1ccc(Br)cc1 (centres undefined)	Non-Toxic	Non-Toxic	4.17	4.29	4.43	4.36	–	–	–	–	–	–	–	–	–	–	–	–	–	–
O=C1Nc2ccccc2C12NC(Cc1ccc(O)cc1)C([N+](=O)[O-])C2c1cccc([N+](=O)[O-])c1 (centres undefined)	Non-Toxic	Non-Toxic	4.13	4.11	3.93	4.31	–	–	–	–	–	–	–	–	–	–	–	–	–	–
COc1ccc(C2C([N+](=O)[O-])C(Cc3ccc(O)cc3)NC23C(=O)Nc2ccc(OC(F)(F)F)cc23)cc1 (centres undefined)	Non-Toxic	Non-Toxic	4.20	4.27	4.38	4.38	–	–	–	–	–	–	–	–	–	–	–	–	–	–
CC[C@@]1(O)C(=O)OCc2c1cc1n(c2=O)Cc2cc3ccccc3nc2-1 [CAMPTOTHECIN]	–	–	4.29	4.29	4.49	4.66	30.71%	39.71%	6.31%	4.14%	Active	61.13%	11.17%	53.97%	10.49%	54.71%	28.49%	58.66%	37.51%	Active
O=C1Nc2ccc(OC(F)(F)F)cc2C12NC(Cc1ccc(O)cc1)C([N+](=O)[O-])C2c1ccc(Cl)cc1 (centres undefined)	Non-Toxic	Non-Toxic	4.17	4.35	4.42	4.35	–	–	–	–	–	–	–	–	–	–	–	–	–	–
